According to US20210045385A1, “PYRIDAZINONE-SUBSTITUTED KETOXIMES AS HERBICIDES” (FMC Corporation, priority 2018, published 2021):

What was measured:
Type in all cases: in vivo
[1] = system: galium (catchweed bedstraw, Galium aparine); assay: Test C postemergence, visual plant response rating
Outline: (§1)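 Seeds sown in a loam–sand blend got a directed preemergence soil spray; postemergence plants (2–10 cm, one- to two-leaf stage) were sprayed with compound in a non-phytotoxic solvent plus surfactant. Injury was scored visually against untreated controls after about 10 d in a greenhouse on a 0–100 scale (100 = complete control).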

[2] = system: pigweed (Amaranthus retroflexus); assay: Test C postemergence, visual plant response rating
Outline: as §1

[3] = system: wheat (Triticum aestivum); assay: Test C postemergence, visual plant response rating
Outline: as §1

[4] = system: kochia (Bassia scoparia); assay: Test C postemergence, visual plant response rating
Outline: as §1

[5] = system: barnyardgrass (Echinochloa crus-galli); assay: Test C postemergence, visual plant response rating
Outline: as §1

[6] = system: foxtail, giant (giant foxtail, Setaria faberi); assay: Test C postemergence, visual plant response rating
Outline: as §1

[7] = system: blackgrass (Alopecurus myosuroides); assay: Test C postemergence, visual plant response rating
Outline: as §1

[8] = system: corn (Zea mays); assay: Test C postemergence, visual plant response rating
Outline: as §1

[9] = system: ragweed (common ragweed, Ambrosia artemisiifolia); assay: Test C postemergence, visual plant response rating
Outline: as §1

[10] = system: Italian ryegrass (Lolium mutiflorum); assay: Test C postemergence, visual plant response rating
Outline: as §1

[11] = system: pigweed (Amaranthus retroflexus); assay: Test C preemergence, visual plant response rating
Outline: as §1

[12] = system: kochia (Bassia scoparia); assay: Test C preemergence, visual plant response rating
Outline: as §1

[13] = system: barnyardgrass (Echinochloa crus-galli); assay: Test C preemergence, visual plant response rating
Outline: as §1

[14] = system: foxtail, giant (giant foxtail, Setaria faberi); assay: Test C preemergence, visual plant response rating
Outline: as §1

[15] = system: ragweed (common ragweed, Ambrosia artemisiifolia); assay: Test C preemergence, visual plant response rating
Outline: as §1

[16] = system: Italian ryegrass (Lolium mutiflorum); assay: Test C preemergence, visual plant response rating
Outline: as §1

[17] = system: sedge umbrella (small-flower umbrella sedge, Cyperus difformis); assay: Test D flooded paddy test, visual plant response rating; conditions: 250 g ai/ha, scale 0 to 100 (0 no effect, 100 complete control), 13 to 15 d
Outline: (§2)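 Greenhouse paddy assay scored on a 0–100 visual scale after 13 to 15 d, where 100 means complete control and a dash marks no result; dosing was into 3 cm floodwater over 2-leaf plants.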

[18] = system: rice (Oryza sativa); assay: as above; conditions: 250 g ai/ha, scale 0 to 100 (0 no effect, 100 complete control), 13 to 15 d
Outline: as §2

[19] = system: duck salad (Heteranthera limosa); assay: as above; conditions: 250 g ai/ha, scale 0 to 100 (0 no effect, 100 complete control), 13 to 15 d
Outline: as §2

[20] = system: barnyardgrass (Echinochloa crus-galli); assay: as above; conditions: 250 g ai/ha, scale 0 to 100 (0 no effect, 100 complete control), 13 to 15 d
Outline: as §2

[21] = Test C, postemergence, 125 g ai/ha
[22] = Test C, 31 g ai/ha, 0 is no effect, 100 is complete control
[23] = Test C, 125 g ai/ha, 0 is no effect, 100 is complete control

Row | SMILES | Galium plant response rating (0 to 100 scale) ([1]; Postemergence, 31 g ai/ha) | Galium plant response rating (0 to 100 scale) [1, 21] | Pigweed plant response rating (0 to 100 scale) ([2]; Postemergence, 31 g ai/ha) | Pigweed plant response rating (0 to 100 scale) [2, 21] | Wheat plant response rating (0 to 100 scale) ([3]; Postemergence, 31 g ai/ha) | Wheat plant response rating (0 to 100 scale) [3, 21] | Kochia plant response rating (0 to 100 scale) ([4]; Postemergence, 31 g ai/ha) | Kochia plant response rating (0 to 100 scale) [4, 21] | Barnyardgrass plant response rating (0 to 100 scale) ([5]; Postemergence, 31 g ai/ha) | Barnyardgrass plant response rating (0 to 100 scale) [5, 21] | Foxtail, Giant plant response rating (0 to 100 scale) ([6]; Postemergence, 31 g ai/ha) | Foxtail, Giant plant response rating (0 to 100 scale) [6, 21] | Blackgrass plant response rating (0 to 100 scale) ([7]; Postemergence, 31 g ai/ha) | Blackgrass plant response rating (0 to 100 scale) [7, 21] | Corn plant response rating (0 to 100 scale) ([8]; Postemergence, 31 g ai/ha) | Corn plant response rating (0 to 100 scale) [8, 21] | Ragweed plant response rating (0 to 100 scale) ([9]; Postemergence, 31 g ai/ha) | Ragweed plant response rating (0 to 100 scale) [9, 21] | Ryegrass, Italian plant response rating (0 to 100 scale) ([10]; Postemergence, 31 g ai/ha) | Ryegrass, Italian plant response rating (0 to 100 scale) [10, 21] | also measured
1 | Cc1nn(C)c(=O)c(/C(=N/OC(C)C)c2cc(Cl)cc(Cl)c2F)c1O [Compound 179] | 100 | 100 | 100 | 100 | 80 | 100 | 80 | 100 | 90 | 80 | 90 | 100 | 80 | 90 | 30 | 80 | 100 | 100 | 90 | 100 | Pigweed plant response rating (0 to 100 scale) ([11]; 125 g ai/ha): 100; Pigweed plant response rating (0 to 100 scale) [11, 22]: 100; Kochia plant response rating (0 to 100 scale) ([12]; 125 g ai/ha): 90; Kochia plant response rating (0 to 100 scale) [12, 22]: 90; Barnyardgrass plant response rating (0 to 100 scale) ([13]; 125 g ai/ha): 100; Barnyardgrass plant response rating (0 to 100 scale) [13, 22]: 90; Foxtail, Giant plant response rating (0 to 100 scale) ([14]; 125 g ai/ha): 100; Foxtail, Giant plant response rating (0 to 100 scale) [14, 22]: 100; Ragweed plant response rating (0 to 100 scale) ([15]; 125 g ai/ha): 100; Ragweed plant response rating (0 to 100 scale) [15, 22]: 90; Ryegrass, Italian plant response rating (0 to 100 scale) ([16]; 125 g ai/ha): 100; Ryegrass, Italian plant response rating (0 to 100 scale) [16, 22]: 100; Plant response rating, Sedge, Umbrella (Flood) [17]: 95; Plant response rating, Rice (Flood) [18]: 70; Plant response rating, Ducksalad (Flood) [19]: 80; Plant response rating, Barnyardgrass (Flood) [20]: 95
2 | C#CCO/N=C(\c1c(O)c(C)nn(C)c1=O)c1cc(Cl)cc2ccccc12 [Compound 191] | 70 | 100 | 90 | 100 | 0 | 70 | 50 | 80 | 80 | 90 | 70 | 80 | 80 | 70 | 10 | 60 | 70 | 80 | 0 | 80 | Pigweed plant response rating (0 to 100 scale) ([11]; 125 g ai/ha): 100; Pigweed plant response rating (0 to 100 scale) [11, 22]: 80; Kochia plant response rating (0 to 100 scale) ([12]; 125 g ai/ha): 60; Kochia plant response rating (0 to 100 scale) [12, 22]: 10; Barnyardgrass plant response rating (0 to 100 scale) ([13]; 125 g ai/ha): 90; Barnyardgrass plant response rating (0 to 100 scale) [13, 22]: 30; Foxtail, Giant plant response rating (0 to 100 scale) ([14]; 125 g ai/ha): 90; Foxtail, Giant plant response rating (0 to 100 scale) [14, 22]: 70; Ragweed plant response rating (0 to 100 scale) ([15]; 125 g ai/ha): 80; Ragweed plant response rating (0 to 100 scale) [15, 22]: 50; Ryegrass, Italian plant response rating (0 to 100 scale) ([16]; 125 g ai/ha): 80; Ryegrass, Italian plant response rating (0 to 100 scale) [16, 22]: 30; Plant response rating, Sedge, Umbrella (Flood) [17]: 80; Plant response rating, Rice (Flood) [18]: 60; Plant response rating, Ducksalad (Flood) [19]: 75; Plant response rating, Barnyardgrass (Flood) [20]: 70
3 | C#CCO/N=C(/c1c(O)c(C)nn(C)c1=O)c1cc(Cl)cc2ccccc12 [Compound 192] | 80 | 100 | 50 | 80 | 0 | 50 | 30 | 60 | 80 | 90 | 70 | 80 | 40 | 70 | 20 | 30 | 80 | 90 | 20 | 70 | Pigweed plant response rating (0 to 100 scale) [11, 22]: 40; Pigweed plant response rating (0 to 100 scale) [11, 23]: 100; Kochia plant response rating (0 to 100 scale) [12, 22]: 0; Kochia plant response rating (0 to 100 scale) [12, 23]: 20; Barnyardgrass plant response rating (0 to 100 scale) [13, 22]: 30; Barnyardgrass plant response rating (0 to 100 scale) [13, 23]: 90; Foxtail, Giant plant response rating (0 to 100 scale) [14, 22]: 60; Foxtail, Giant plant response rating (0 to 100 scale) [14, 23]: 90; Ragweed plant response rating (0 to 100 scale) [15, 22]: 30; Ragweed plant response rating (0 to 100 scale) [15, 23]: 70; Ryegrass, Italian plant response rating (0 to 100 scale) [16, 22]: 10; Ryegrass, Italian plant response rating (0 to 100 scale) [16, 23]: 70; Plant response rating, Sedge, Umbrella (Flood) [17]: 70; Plant response rating, Rice (Flood) [18]: 0; Plant response rating, Ducksalad (Flood) [19]: 70; Plant response rating, Barnyardgrass (Flood) [20]: 50
4 | CO/N=C(\c1cc(F)cc(C)c1F)c1c(O)c(C)nn(C)c1=O [Compound 193] | 80 | 90 | 40 | 80 | 0 | 0 | 60 | 70 | 20 | 50 | 40 | 50 | 20 | 50 | 0 | 10 | 70 | 70 | 40 | 70 | Pigweed plant response rating (0 to 100 scale) [11, 22]: 50; Pigweed plant response rating (0 to 100 scale) [11, 23]: 90; Kochia plant response rating (0 to 100 scale) [12, 22]: 10; Kochia plant response rating (0 to 100 scale) [12, 23]: 70; Barnyardgrass plant response rating (0 to 100 scale) [13, 22]: 30; Barnyardgrass plant response rating (0 to 100 scale) [13, 23]: 60; Foxtail, Giant plant response rating (0 to 100 scale) [14, 22]: 30; Foxtail, Giant plant response rating (0 to 100 scale) [14, 23]: 80; Ragweed plant response rating (0 to 100 scale) [15, 22]: 30; Ragweed plant response rating (0 to 100 scale) [15, 23]: 60; Ryegrass, Italian plant response rating (0 to 100 scale) [16, 22]: 30; Ryegrass, Italian plant response rating (0 to 100 scale) [16, 23]: 80; Plant response rating, Sedge, Umbrella (Flood) [17]: 0; Plant response rating, Rice (Flood) [18]: 0; Plant response rating, Ducksalad (Flood) [19]: 0; Plant response rating, Barnyardgrass (Flood) [20]: 0
